The text below walks through data of ChEMBL document CHEMBL4229477, “Reevaluating the Substrate Specificity of the L-Type Amino Acid Transporter (LAT1)” (J Med Chem, 2018).

Data set [1] deals with Large neutral amino acids transporter small subunit 1 (Homo sapiens) (UniProt Q01650). The data set can be described thus: Cis-inhibition of human LAT1 expressed in TREx HEK293 cells at 200 uM assessed as inhibition of [3H]-gabapentin uptake at 200 uM preincubated for 3 mins at 37 degC followed by washing with choline buffer and measured after 3 hrs by scintillation counting analysis relative to BCH. The class given is cell-based.

Data set [2] shares this target. The experiment in a line: Trans-stimulation of human LAT1 expressed in TREx HEK293 cells assessed as induction of [3H]-gabapentin efflux at 200 uM after 3 mins by scintillation counting analysis relative to L-phenylalanine. The class given is cell-based.
Another data set concerns N[C@H](Cc1ccccc1)C(=O)O. The data set can be described thus: (§1) Substrate activity at recombinant human LAT1 expressed in Xenopus laevis oocytes assessed as Km by measuring L-[14C]-leucine uptake by Eadie-Hofstee plot method. The class given is cell-based.
Data set [3] has as its system N[C@@H](Cc1ccccc1)C(=O)O. The description is as §1. The class given is cell-based.
Data set [4] relates to N[C@@H](Cc1ccccc1)C(=O)O. The data set can be described thus: Binding affinity to LAT1 (unknown origin) by in-vitro cell uptake assay. The conditions noted are these: Homo sapiens.

The inhibition is the drop in the measured response relative to a control, in per cent. What is called Km is the substrate concentration at which the rate is half of its maximum.

Large neutral amino acids transporter small subunit 1 (Homo sapiens), sequence (Q01650 whole entry): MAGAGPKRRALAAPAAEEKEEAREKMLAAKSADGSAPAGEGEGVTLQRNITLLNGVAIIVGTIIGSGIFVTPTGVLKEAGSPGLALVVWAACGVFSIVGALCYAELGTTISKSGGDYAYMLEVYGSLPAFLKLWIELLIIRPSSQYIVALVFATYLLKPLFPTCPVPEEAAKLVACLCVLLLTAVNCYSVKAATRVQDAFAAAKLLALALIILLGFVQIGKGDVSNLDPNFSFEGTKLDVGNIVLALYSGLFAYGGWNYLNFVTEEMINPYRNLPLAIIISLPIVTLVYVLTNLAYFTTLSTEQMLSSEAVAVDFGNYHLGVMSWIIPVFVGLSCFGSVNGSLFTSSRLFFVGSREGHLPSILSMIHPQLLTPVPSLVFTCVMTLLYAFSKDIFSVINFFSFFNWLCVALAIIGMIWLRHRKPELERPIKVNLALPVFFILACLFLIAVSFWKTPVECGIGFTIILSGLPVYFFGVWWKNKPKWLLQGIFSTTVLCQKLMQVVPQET
Large neutral amino acids transporter small subunit 1 (Homo sapiens), Q01650, sequence (Q01650 whole entry): as above

As to `Nc1cccc(C[C@H](N)C(=O)O)c1`, the inhibition in data set [1] was 100%. For the same molecule, the Activity in data set [2] was found to be 100%. For the molecule `CC(=O)c1cccc(C[C@H](N)C(=O)O)c1`, in data set [1], the inhibition turned out to be 100%. For the same molecule, the Activity in data set [2] was 96%. For `N[C@@H](Cc1cccc(O)c1)C(=O)O` the same measures were 97% and 96%. The corresponding values for `CC(C)(C)OC(=O)c1cccc(C[C@H](N)C(=O)O)c1` are 99% and 70%. The corresponding values for `N[C@@H](Cc1c[nH]cn1)C(=O)O` are 92% and 140%.

With `CC(C)C[C@](N)(Cc1ccccc1)C(=O)O`, in data set [1], the inhibition was 15%. Also, the Activity in data set [2] was determined as 19%. The corresponding values for `Cc1cc(C[C@H](N)C(=O)O)cc(C(=O)O)c1` are 30% and 28%. For the molecule `N[C@@H](Cc1cccc(C(F)(F)F)c1)C(=O)O`, in data set [1], the inhibition was 87%. In addition, in data set [2], the Activity came to 59%. On to `N=C(N)NCCC[C@H](N)C(=O)O`, for which the Activity in data set [2] was 28%. Consider `CC(=O)Oc1cccc(C[C@H](N)C(=O)O)c1`, for which the inhibition in data set [1] amounted to 54%. Also, in data set [2], the Activity turned out to be 37%.

With `N[C@H](Cc1ccc(O)cc1)C(=O)O`, the inhibition in data set [1] came to 35%. Besides, in data set [2], the Activity turned out to be 85%. `N[C@@H](Cc1cccc(Cc2ccccc2)c1)C(=O)O`: the Activity in data set [2] was found to be 29%. On to `CC(C)[C@H](N)C(=O)O`, for which, in data set [1], the inhibition is 43%. The Activity in data set [2] was determined as 100%. The corresponding values for `N[C@H](Cc1cccc(C(=O)O)c1)C(=O)O` are 9% and 31%. The corresponding values for `N[C@@H](Cc1cccc(CO)c1)C(=O)O` are 99% and 120%. For `N[C@H](Cc1c[nH]c2ccccc12)C(=O)O` the same measures were 29% and 81%. Turning to `N[C@@H](CCC(=O)O)C(=O)O`, the inhibition in data set [1] is -2.4%. Further, the Activity in data set [2] stood at 27%. The corresponding values for `CC(C)C[C@@](N)(Cc1ccccc1)C(=O)O` are 2.1% and 27%. The corresponding values for `CC(C)(C)c1cccc(C[C@H](N)C(=O)O)c1` are 101% and 44%.

Consider `COC(=O)c1cc(C)cc(C[C@H](N)C(=O)O)c1`, for which the inhibition in data set [1] is 71%. For the same molecule, in data set [2], the Activity amounted to 56%. For `CSCC[C@](N)(Cc1ccccc1)C(=O)O` the same measures were 21% and 56%. The corresponding values for `NCc1cccc(C[C@H](N)C(=O)O)c1` are 27% and 78%. “Large neutral amino acids transporter small subunit 1 (Homo sapiens), Q01650”: the Km in the data set on N[C@H](Cc1ccccc1)C(=O)O is 121 µM; in the data set with N[C@@H](Cc1ccccc1)C(=O)O [3] it was 14.2 µM; with N[C@@H](Cc1ccccc1)C(=O)O [4] it was 11 µM. Take `COC(=O)Cc1cccc(C[C@H](N)C(=O)O)c1`: in data set [1], the inhibition is 72%. The Activity in data set [2] turned out to be 52%. For `CNC(=O)c1cccc(C[C@H](N)C(=O)O)c1` the same measures were 88% and 100%.

For `N[C@@H](Cc1ccccc1)C(=O)O`, in data set [2], the Activity is 100%. For `CSCC[C@@](N)(Cc1ccccc1)C(=O)O`, the inhibition in data set [1] was -0.2%. The Activity in data set [2] worked out at 27%. Take `N[C@@H](Cc1ccc(O)cc1)C(=O)O`: the Activity in data set [2] was 96%. On the same count and under the same terms, the same measure for `CSCC[C@H](N)C(=O)O`: 89%.

On to `COC(=O)c1cccc(C[C@H](N)C(=O)O)c1`, for which the inhibition in data set [1] worked out at 81%. The Activity in data set [2] came out at 89%. The corresponding values for `N[C@@H](Cc1cccc(C(=O)OCCO)c1)C(=O)O` are 81% and 74%. For the molecule `NCC(=O)O`, in data set [2], the Activity was found to be 29%.

On to `N[C@@H](Cc1cccc(CC(=O)O)c1)C(=O)O`, for which the inhibition in data set [1] was found to be 25%. Besides, the Activity in data set [2] was found to be 24%. Regarding `N[C@@H](Cc1cccc(-c2ccccc2)c1)C(=O)O`, in data set [2], the Activity is 29%. Turning to `NC(Cc1ccccc1)(Cc1ccccc1)C(=O)O`, in data set [1], the inhibition turned out to be 11%. In addition, the Activity in data set [2] stood at 23%. In the case of `Cc1cccc(C[C@H](N)C(=O)O)c1`, in data set [2], the Activity worked out at 140%. `CC[C@H](C)[C@@H](N)C(=O)O`: the inhibition in data set [1] worked out at 18%. In addition, the Activity in data set [2] is 78%. Turning to `CC(=O)Nc1cccc(C[C@H](N)C(=O)O)c1`, the inhibition in data set [1] was 85%. The Activity in data set [2] turned out to be 110%.

On to `COC(=O)c1ccc(C[C@H](N)C(=O)O)cc1`, for which the inhibition in data set [1] was 37%. In data set [2], the Activity was found to be 67%. For the molecule `N[C@H](Cc1ccccc1)C(=O)O`, the inhibition in data set [1] was determined as 74%. The Activity in data set [2] amounted to 96%. With `CSCC[C@@H](N)C(=O)O`, in data set [1], the inhibition worked out at 56%. For the same molecule, the Activity in data set [2] is 110%. Consider `N[C@@](Cc1ccccc1)(Cc1c[nH]cn1)C(=O)O`, for which the inhibition in data set [1] worked out at 19%. For the same molecule, the Activity in data set [2] was found to be 13%. For `N[C@@H](Cc1cn(Cc2ccccc2)cn1)C(=O)O` the same measures were 74% and 81%. The corresponding values for `CC(C)[C@@H](N)C(=O)O` are 11% and 41%. The corresponding values for `NCCCC[C@H](N)C(=O)O` are -2.1% and 33%.

As to `COC(=O)c1cccc(C[C@@H](N)C(=O)O)c1`, the inhibition in data set [1] worked out at 40%. Further, in data set [2], the Activity was found to be 41%.

For `N[C@H](Cc1c[nH]cn1)C(=O)O`, in data set [1], the inhibition was 33%. Besides, in data set [2], the Activity is 78%. Consider `Cc1ccc(C[C@H](N)C(=O)O)cc1`, for which the Activity in data set [2] amounted to 100%. On the same count and under the same terms, with `N[C@@H](Cc1c[nH]c2ccccc12)C(=O)O` the figure was 59%. In the case of `N#Cc1cccc(C[C@H](N)C(=O)O)c1`, the inhibition in data set [1] worked out at 67%. For the same molecule, the Activity in data set [2] came to 70%. The corresponding values for `N[C@@H](Cc1cccc(C(=O)O)c1)C(=O)O` are 69% and 56%. For the molecule `CC[C@H](C)[C@H](N)C(=O)O`, the Activity in data set [2] was 93%.
